Row | melting point | Structure (SMILES)
1 | 264 to 268 °C | CC(=O)N(CC(=O)N(C)C)c1ccc(N/C(=C2\C(=O)Nc3ccccc32)c2ccccc2)cc1 [Example 355, (Z)-3-{1-[4-(N-dimethylaminocarbonylmethyl-N-acetyl-amino)-phenylamino]-1-phenyl-methylidene}-2-indolinone]
2 | 270 °C (dec.) | CCC(=O)N(CC(=O)O)c1ccc(N/C(=C2\C(=O)Nc3ccccc32)c2ccccc2)cc1 [Example 357, (Z)-3-{1-[4-(N-carboxymethyl-N-propionyl-amino)-phenylamino]-1-phenyl-methylidene}-2-indolinone]
3 | 268 °C | CCC(=O)N(CC(=O)NC)c1ccc(N/C(=C2\C(=O)Nc3ccccc32)c2ccccc2)cc1 [Example 358, (Z)-3-{1-[4-(N-methylaminocarbonylmethyl-N-propionyl-amino)-phenylamino]-1-phenyl-methylidene}-2-indolinone]
4 | 238 to 239 °C | CN(C(=O)CN)c1ccc(N/C(=C2\C(=O)Nc3ccccc32)c2ccccc2)cc1 [Example 366, (Z)-3-{1-[4-(N-aminomethylcarbonyl-N-methyl-amino)-phenylamino]-1-phenyl-methylidene}-2-indolinone]
5 | 255 to 256 °C | CC(=O)NCC(=O)N(C)c1ccc(N/C(=C2\C(=O)Nc3ccccc32)c2ccccc2)cc1 [Example 367, (Z)-3-{1-[4-(N-acetylaminomethylcarbonyl-N-methyl-amino)-phenylamino]-1-phenyl-methylidene}-2-indolinone]
6 | 245 to 247 °C | CC(=O)NCC(=O)Nc1ccc(N/C(=C2\C(=O)Nc3ccccc32)c2ccccc2)cc1 [Example 368, (Z)-3-{1-[4-(acetylaminomethylcarbonylamino)-phenylamino]-1-phenyl-methylidene}-2-indolinone]
7 | 187 to 189 °C | CC(=O)NCCC(=O)N(C)c1ccc(N/C(=C2\C(=O)Nc3ccccc32)c2ccccc2)cc1 [Example 378, (Z)-3-{1-[4-(N-(2-acetylamino-ethylcarbonyl)-N-methyl-amino)-phenylamino]-1-phenyl-methylidene}-2-indolinone]

The next lines start with the compound.

Row | Structure (SMILES) | melting point
8 | CCOC(=O)CN(C(=O)CC)c1ccc(N/C(=C2\C(=O)Nc3ccccc32)c2ccccc2)cc1 [Example 356, (Z)-3-{1-[4-(N-ethoxycarbonylmethyl-N-propionyl-amino)-phenylamino]-1-phenyl-methylidene}-2-indolinone] | 229 to 232 °C
9 | CCC(=O)N(CC(=O)N(C)C)c1ccc(N/C(=C2\C(=O)Nc3ccccc32)c2ccccc2)cc1 [Example 359, (Z)-3-{1-[4-(N-dimethylaminocarbonylmethyl-N-propionyl-amino)-phenylamino]-1-phenyl-methylidene}-2-indolinone] | 274 to 277 °C
10 | CCOC(=O)CN(C(=O)c1ccccc1)c1ccc(N/C(=C2\C(=O)Nc3ccccc32)c2ccccc2)cc1 [Example 360, (Z)-3-{1-[4-(N-ethoxycarbonylmethyl-N-benzoyl-amino)-phenylamino]-1-phenyl-methylidene}-2-indolinone] | 209 to 211 °C
11 | O=C(O)CN(C(=O)c1ccccc1)c1ccc(N/C(=C2\C(=O)Nc3ccccc32)c2ccccc2)cc1 [Example 361, (Z)-3-{1-[4-(N-carboxymethyl-N-benzoyl-amino)-phenylamino]-1-phenyl-methylidene}-2-indolinone] | 277 °C (dec.)
12 | CNC(=O)CN(C(=O)c1ccccc1)c1ccc(N/C(=C2\C(=O)Nc3ccccc32)c2ccccc2)cc1 [Example 362, (Z)-3-{1-[4-(N-methylaminocarbonylmethyl-N-benzoyl-amino)-phenylamino]-1-phenyl-methylidene}-2-indolinone] | 260 to 262 °C
13 | CN(C)C(=O)CN(C(=O)c1ccccc1)c1ccc(N/C(=C2\C(=O)Nc3ccccc32)c2ccccc2)cc1 [Example 363, (Z)-3-{1-[4-(N-dimethylaminocarbonylmethyl-N-benzoyl-amino)-phenylamino]-1-phenyl-methylidene}-2-indolinone] | 284 to 287 °C
14 | CN(C(=O)CN1CCCC1)c1ccc(N/C(=C2\C(=O)Nc3ccc([N+](=O)[O-])cc32)c2ccccc2)cc1 [Example 364, (Z)-3-{1-[4-(N-(pyrrolidin-1-ylmethylcarbonyl)-N-methyl-amino)-phenylamino]-1-phenyl-methylidene}-5-nitro-2-indolinone] | 246 to 247 °C
15 | CN(C(=O)CN1C(=O)c2ccccc2C1=O)c1ccc(N/C(=C2\C(=O)Nc3ccccc32)c2ccccc2)cc1 [Example 365, (Z)-3-{1-[4-(N-phthalimidomethylcarbonyl-N-methyl-amino)-phenylamino]-1-phenyl-methylidene}-2-indolinone] | 278 to 280 °C
16 | CN(C(=O)CN1CCCC1)c1ccc(N/C(=C2\C(=O)Nc3ccccc32)c2ccccc2)cc1 [Example 369, (Z)-3-{1-[4-(N-(pyrrolidin-1-ylmethylcarbonyl)-N-methyl-amino)-phenylamino]-1-phenyl-methylidene}-2-indolinone] | 253 to 255 °C
17 | CN(CC(=O)N(C)c1ccc(N/C(=C2\C(=O)Nc3ccccc32)c2ccccc2)cc1)Cc1ccccc1 [Example 370, (Z)-3-{1-[4-(N—(N-benzyl-N-methyl-aminomethylcarbonyl)-N-methyl-amino)-phenylamino]-1-phenyl-methylidene}-2-indolinone] | 195 to 197 °C
18 | COCCNCC(=O)N(C)c1ccc(N/C(=C2\C(=O)Nc3ccccc32)c2ccccc2)cc1 [Example 371, (Z)-3-{1-[4-(N-(2-methoxyethylaminomethylcarbonyl)-N-methyl-amino)-phenylamino]-1-phenyl-methylidene}-2-indolinone] | 186 to 188 °C
19 | COCCN(C)CC(=O)N(C)c1ccc(N/C(=C2\C(=O)Nc3ccccc32)c2ccccc2)cc1 [Example 372, (Z)-3-{1-[4-(N—(N-(2-methoxyethyl)-N-methyl-aminomethylcarbonyl)-N-methyl-amino)-phenylamino]-1-phenyl-methylidene}-2-indolinone] | 197 to 199 °C
20 | CN(C(=O)CNCCN1CCOCC1)c1ccc(N/C(=C2\C(=O)Nc3ccccc32)c2ccccc2)cc1 [Example 373, (Z)-3-{1-[4-(N-(2-morpholinoethylaminomethylcarbonyl)-N-methyl-amino)-phenylamino]-1-phenyl-methylidene}-2-indolinone] | 117 to 119 °C
21 | CN(CCN1CCOCC1)CC(=O)N(C)c1ccc(N/C(=C2\C(=O)Nc3ccccc32)c2ccccc2)cc1 [Example 374, (Z)-3-{1-[4-(N—(N-(2-morpholinoethyl)-N-methyl-aminomethyl-carbonyl)-N-methylamino)-phenylamino]-1-phenyl-methylidene}-2-indolinone] | 116 to 118 °C
22 | CN(C)CCN(C)CC(=O)N(C)c1ccc(N/C(=C2\C(=O)Nc3ccccc32)c2ccccc2)cc1 [Example 375, (Z)-3-{1-[4-(N—(N-(2-dimethylaminoethyl)-N-methyl-aminomethylcarbonyl)-N-methylamino)-phenylamino]-1-phenyl-methylidene}-2-indolinone] | 167 to 169 °C
23 | CN(C(=O)CCNC(=O)OC(C)(C)C)c1ccc(N/C(=C2\C(=O)Nc3ccccc32)c2ccccc2)cc1 [Example 376, (Z)-3-{1-[4-(N-(2-tert.butoxycarbonylamino-ethylcarbonyl)-N-methyl-amino)-phenylamino]-1-phenyl-methylidene}-2-indolinone] | 246 to 248 °C
